This note sets out measurements from US20110177180A1, “HERBAL COMPOSITION AND METHOD FOR THE TREATMENT OF VIRAL INFECTION” (PIRAMAL LIFE SCIENCES LIMITED, priority 2008, published 2011).

Assay [1] deals with HSV-2. In words: Mouse vaginal model of HSV-2 infection (Example 14). It counts as in vivo, BALB/c mice. As to conditions: 75 mg/kg in PBS intravaginal, three times a day for 5 days; 5×10^3 pfu; 21 days. As to the method: The assay was done as reported in Antiviral Research, 2006, 69:77-85.
(§1) Female BALB/c mice of eight weeks age and body weight 18-20 g were used for intravaginal (IVAG) challenge (vaginal inoculation) with the virus (using viral stock of step 2 of example 10). Five days prior to the IVAG challenge, mice were injected subcutaneously (SC) with 2 mg of progesterone (Depo-Provera®; Pfizer, Belgium) in the upper back, using a 29-gauge needle. On the day of challenge, mice were anesthetized with Ketamine (150 mg/kg) and Xylazine (10 mg/kg) by intraperitoneal injection. Mice were inoculated intravaginally with 5×10^3 pfu of the virus using a micropipette in a total volume of 20 μL DMEM. […] Each group had ten animals. Animals were treated three times a day with the treatment intervals of 4 hours for 5 days. 20 μL of the above samples were injected into the vaginal vault using micropipette.
The animals were assessed daily for survival and extravaginal disease signs through 21 days of post inoculation (PI). […]

The test system of assay [2] is HSV-2. In words: Mouse vaginal model of HSV-2 infection (Example 15). The format is in vivo, BALB/c mice. To be noted: 225mg/kg. The procedure: as §1
The animals were assessed daily for survival and extravaginal disease signs through 21 days of post inoculation (PI). The severity of the viral disease (extravaginal signs of disease) was quantified using a well-established lesion score scale, also known as five-point scale as follows: • 0: no apparent infection; • 1: few isolated papules and slight redness of extravaginal tissue; • 2: few isolated papules, ulcers, and/or eschar and/or swelling and redness of extravaginal tissue; • 3: multiple fused ulcers/eschars, moderate swelling and redness of extravaginal tissue with extension to surrounding tissue; • 4: ulceration with severe redness and swelling of extravaginal tissue with extension to surrounding tissue, rear leg paralysis; and • 5: severe ulceration of extravaginal tissue with extension to surrounding tissue, weight loss, rear leg paralysis and death.
The assay was performed as mentioned in Example 14 with modifications as mentioned below: • (i) Mice were inoculated intravaginally with 2×10^4 pfu of the virus instead of 5×10^3 pfu in Example 14. • (ii) Evaluation was done by topical application of the formulations (Formulation I, Formulation II and Formulation III) instead of injection of extracts into vaginal vault of the animals in Example 14. • (iii) One more group of animals was studied: “infection control group” in which the mice were inoculated with the virus but were not treated.
Extract of Example 1 (dissolved in PBS) was injected into the vaginal vault using micropipette. Formulation I, Formulation II and Formulation III were applied topically (25 mg) thrice daily for a 5 day period. 25 mg of Formulation IB, IIB or IIIB correspond to 375 mg/kg dose; 25 mg of Formulation IC, IIC or IIIC correspond to 750 mg/kg dose and 25 mg of Formulation ID, IID and IIID correspond to 1500 mg/kg dose evaluated in the animals.

For assay [3], the system named is HSV-2. In words: CPE inhibition assay - crystal violet staining method. As to conditions: Human alphaherpesvirus 2; 25 μg/mL; Vero cells, HSV-2 100 TCID50, 48 hours. It counts as cell-based. The procedure: The assay was designed to detect agents (in this case, the extracts) acting at any stage of the virus reproductive cycle. The assay was done as reported in Indian J. Med. Res., 2004, 120:24-29.
Vero cells (obtained in step 1 of Example 10) were propagated at a density of 1×10^4 cells/well in 96 well plate and incubated at 37° C. in a CO2 incubator for 24 hours to form a monolayer. […] Appropriate controls were included such as Vero cells alone (cell control), Vero cells with virus (virus control) and Vero cells with virus and the standard compound acyclovir. Acyclovir was checked at the following concentrations (DMSO stock of 20 mg/mL of acyclovir was diluted to 100 μg/mL with DMEM containing 2% FBS): 25 μg/mL, 3.125 μg/mL, 1.56 μg/mL and 0.78 μg/mL and 0.39 μg/mL. After one hour, cells were infected with a multiplicity of infection (moi) of 100 TCID50 of viral dose per well using viral stock obtained in step 2 of Example 10. The infected cells were incubated with maintenance medium (DMEM with 2% FBS) for another 48 hours. […] The staining solution was aspirated out and the plates rinsed using distilled water until all excess stain was washed away. The plates were allowed to dry for 24 hours. CPE was evaluated visually, after staining the plaques, and microscopically and graded according to the percentage of CPE inhibition as compared to controls. […]

Setting [4] is: positive control in evaluation of Formulation I.
Setting [5] is: positive control in evaluation of Formulation II.
The mark [6] stands for this setting: positive control in evaluation of Formulation III.
[7] abbreviates: positive control in evaluation of extract of Example 1.

Regarding `Nc1nc2c(ncn2COCCO)c(=O)[nH]1` [Acyclovir], in the assay on HSV-2 [1], the “deaths during the experiment” value is listed as “None of the mice died during the experiment” and the “signs of extravaginal disease” value is reported as “None of the mice showed signs of extravaginal disease”. Moreover, in the assay on HSV-2 [2] (setting [4]), the extravaginal disease entry is “None of the mice showed extravaginal disease” and the survival rate is recorded as 100%. Also, in the assay with HSV-2 [2] (setting [5]), the “course of extravaginal disease” value is recorded as “continued till day 21”, the “day on which extravaginal disease appeared” value is 18 days and the survival rate amounted to 100%. For the same compound, in the assay with HSV-2 [2] (setting [6]), the extravaginal disease result is listed as “None of the mice showed extravaginal disease” and the survival rate came to 100%. For the same compound, in the assay on HSV-2 [2] (setting [7]), the extravaginal disease entry was “None of the mice showed extravaginal disease” and the survival rate was determined as 100%. The inhibition at 25 µg/mL in the assay on HSV-2 [3] is 76 to 100%.
